Laboratory results: patent publication US12121514B2, “Nonselective metabotropic glutamate receptor activators for treatment of attention deficit disorder and 22Q syndrome” (THE CHILDREN'S HOSPITAL OF PHILADELPHIA, priority 2015, dated 2024)
Where “and” joins values, the source holds several entries; their conditions need not be identical. Equal entries are not always repeated.

Tested on: adolescent subjects with ADHD and at least one genetic alteration in an mGluR network gene
Experiment: Vanderbilt ADHD score (items 1-18, parent), Phase Ib trial of NFC-1
Type: in vivo, human
Details: for Change in Vanderbilt / Final Vanderbilt: individual subjects, monohydrate; for Change in Vanderbilt: placebo baseline (week 1) to final (week 5); for Final Vanderbilt: week 5; for Mean (SEM) Vanderbilt ADHD score, Repeated Measures Analysis: overall study population; for Percent of subjects completing the dose escalation to 400 mg bid that show improvement in Vanderbilt ADHD scores (at least 25% decrease) / Percent of subjects completing the dose escalation to 400 mg bid that show robust improvement in Vanderbilt ADHD scores (at least 40% decrease) / Percent of subjects demonstrating robust improvement in Vanderbilt ADHD score (at least 40% decrease) / Percent of subjects with improvement in Vanderbilt ADHD score (at least 25% decrease): relative to placebo (week 1) baseline
Text: The Vanderbilt Rating Scale is a measure that can be completed by parents or teachers (separate forms, see Vanderbilt Rating Scale Parents and Vanderbilt Rating Scale Teachers). The Vanderbilt scale rates the child's behavior on items such as attention, finishing tasks, hyperactivity, difficulty waiting, and measures of conduct or oppositional defiant disorders—as well as measures of overall school performance and interactions with others. The first 18 items on the Vanderbilt scale correspond to those of the ADHD Rating Scale IV above while the Vanderbilt scale also includes items 19-47 related to other mental disorders including ODD (items 19-26), conduct disorder (items 27-40), anxiety (items 41, 42, and 47), and depression (items 43-46). Each of the behavioral assessment items on the Vanderbilt Scale are rated 0, 1, 2, or 3, with 0=never occurring; 1=occasionally, 2=often, and 3=very often. Thus, the ADHD Rating Scale IV, ADHD Rating Scale V, and items 1-18 of the Vanderbilt Rating Scale are equivalent scales, while additional items on the Vanderbilt Scale assess co-morbid phenotypes and disorders.
Each of the items are rated on a scale of 0, 1, 2, or 3, with 0=never; 1=occasionally, 2=often, and 3=very often. A total score of 0 to 54 is computed based on the answers to the 18 questions.
As used herein an “ADHD rating scale score,” “ADHD score” or “Vanderbilt ADHD score” are used interchangeably to refer to the computed score of the 18 items of the ADHD Rating Scale IV or V or the first 18 items of the Vanderbilt Rating Scale in any of their associated versions, e.g., for parent, teacher, or clinician to complete, and for a pediatric subject or adult subject. Clinical trials may assess the impact of drug or placebo on the ADHD score or Vanderbilt ADHD score (i.e. the score of 0 to 54 based on the first 18 items in the ADHD or Vanderbilt rating scale). In some cases, results of a clinical trial population may be analyzed by comparing the average score or a percentage change in score over time of administration of drug.
An open-label Phase Ib clinical trial was initiated to investigate the safety, pharmacokinetics and efficacy of NFC-1 (fasoracetam monohydrate) in adolescent subjects between the ages of 12 and 17 previously diagnosed with ADHD who also had at least one genetic alteration in an mGluR network gene.
Dose-escalation phase of the trial followed the PK and initial safety assessment and ran over a 5-week period. During week 1, all subjects were administered placebo capsules twice daily. After one week of placebo treatment, patients were started on 50 mg bid NFC-1 for 1 week. If safety and responsiveness data from prior dose level of fasoracetam indicated it was appropriate, subjects were then escalated to the next higher dose (100, 200, or 400 mg). […] Of the 30 trial subjects, 3 received a maximum dose of 100 mg, 9 received a maximum dose of 200 mg, and the remaining 18 received a maximum dose of 400 mg.
All efficacy assessments, except actigraphy, were made at study enrollment (“enrollment baseline”) and again, including actigraphy, once-per-week for the placebo week (“week 1” or “placebo baseline”) and at each of the 4 weeks of NFC-1 treatment. These efficacy measures include items 1-18 of the Vanderbilt scale assessing symptoms related to inattentiveness and hyperactivity-impulsiveness as well as additional questions 19-47 of the Vanderbilt scale assessing other behavioral symptoms (conducted by parent), actigraphy for quantitative measurement of activity, Quotient® ADHD test for objective measurement of micro-motion and shifts in attention state, PERMP-Math test, and CGI-I and CGI-S for assessment of global functioning. […]

[1] = Overall, Week 3, up to 100 mg bid
[2] = Overall, Week 4, up to 200 mg bid
[3] = Overall, Week 5, up to 400 mg bid
[4] = Tier 1, Week 3, up to 100 mg bid
[5] = Tier 1, Week 4, up to 200 mg bid
[6] = Tier 1, Week 5, up to 400 mg bid
[7] = Tier 2, Week 3, up to 100 mg bid
[8] = Tier 2, Week 4, up to 200 mg bid
[9] = Tier 2, Week 5, up to 400 mg bid

O=C1CC[C@H](C(=O)N2CCCCC2)N1 [NFC-1, fasoracetam monohydrate]
Vanderbilt (22q syndrome Subject 110, Week 2, 50 mg bid): 20 | Vanderbilt (22q syndrome Subject 110, Week 3, 100 mg bid): 17 | Vanderbilt (22q syndrome Subject 110, Week 4, 200 mg bid): 16 | Vanderbilt (22q syndrome Subject 110, Week 5, 400 mg bid): 17 | Vanderbilt (22q syndrome Subject 127, Week 2, 50 mg bid): 45 | Vanderbilt (22q syndrome Subject 127, Week 3, 100 mg bid): 25 | Vanderbilt (22q syndrome Subject 127, Week 5, 400 mg bid): 33 | change in Vanderbilt ADHD score (Subject 110 (22q syndrome), week 5 compared to week 1): 5 points | Change in Vanderbilt (max dose 100 mg bid): −8 and −10 and −32 | Final Vanderbilt (max dose 100 mg bid): 0 and 22 and 17 | Change in Vanderbilt (max dose 200 mg bid): −14 and −3 and −9 and −32 and −5 and −1 and −35 and −2 and −8 | Final Vanderbilt (max dose 200 mg bid): 23 and 3 and 0 and 18 and 31 and 1 and 12 and 39 and 30 | Change in Vanderbilt (max dose 400 mg bid): −4 and −5 and 4 and −13 (2×) and 21 and −16 (2×) and 1 and 0 and −9 and −10 and −21 and −6 and −11 and −20 and −1 | Final Vanderbilt (max dose 400 mg bid): 6 and 17 (2×) and 34 and 36 and 46 and 12 (2×) and 0 and 15 and 24 and 14 and 23 and 29 and 33 and 16 and 35 | Mean (SEM) Vanderbilt ADHD score, Repeated Measures Analysis (Week 2, 50 mg bid): 26.4 (8.1) | Mean (SEM) Vanderbilt ADHD score, Repeated Measures Analysis (Week 3, up to 100 mg bid): 24.0 (8.1) | Mean (SEM) Vanderbilt ADHD score, Repeated Measures Analysis (Week 4, up to 200 mg bid): 23.3 (8.1) | Mean (SEM) Vanderbilt ADHD score, Repeated Measures Analysis (Week 5, up to 400 mg bid): 22.5 (8.1) | Percent of subjects completing the dose escalation to 400 mg bid that show improvement in Vanderbilt ADHD scores (at least 25% decrease) (Overall, Week 2, 50 mg bid): 14% | Percent of subjects completing the dose escalation to 400 mg bid that show robust improvement in Vanderbilt ADHD scores (at least 40% decrease) (Overall, Week 2, 50 mg bid): 7% | Percent of subjects demonstrating robust improvement in Vanderbilt ADHD score (at least 40% decrease) (Overall, Week 2, 50 mg bid): 7% | Percent of subjects with improvement in Vanderbilt ADHD score (at least 25% decrease) (Overall, Week 2, 50 mg bid): 25% | Percent of subjects completing the dose escalation to 400 mg bid that show improvement in Vanderbilt ADHD scores (at least 25% decrease) (Overall, Week 3, 100 mg bid): 36% | Percent of subjects completing the dose escalation to 400 mg bid that show robust improvement in Vanderbilt ADHD scores (at least 40% decrease) (Overall, Week 3, 100 mg bid): 29% | Percent of subjects demonstrating robust improvement in Vanderbilt ADHD score (at least 40% decrease) [1]: 25% | Percent of subjects with improvement in Vanderbilt ADHD score (at least 25% decrease) [1]: 43% | Percent of subjects completing the dose escalation to 400 mg bid that show improvement in Vanderbilt ADHD scores (at least 25% decrease) (Overall, Week 4, 200 mg bid): 36% | Percent of subjects completing the dose escalation to 400 mg bid that show robust improvement in Vanderbilt ADHD scores (at least 40% decrease) (Overall, Week 4, 200 mg bid): 21% | Percent of subjects demonstrating robust improvement in Vanderbilt ADHD score (at least 40% decrease) [2]: 32% | Percent of subjects with improvement in Vanderbilt ADHD score (at least 25% decrease) [2]: 43% | Percent of subjects completing the dose escalation to 400 mg bid that show improvement in Vanderbilt ADHD scores (at least 25% decrease) (Overall, Week 5, 400 mg bid): 57% | Percent of subjects completing the dose escalation to 400 mg bid that show robust improvement in Vanderbilt ADHD scores (at least 40% decrease) (Overall, Week 5, 400 mg bid): 36% | Percent of subjects demonstrating robust improvement in Vanderbilt ADHD score (at least 40% decrease) [3]: 37% | Percent of subjects with improvement in Vanderbilt ADHD score (at least 25% decrease) [3]: 52% | Percent of subjects completing the dose escalation to 400 mg bid that show improvement in Vanderbilt ADHD scores (at least 25% decrease) (Tier 1, Week 2, 50 mg bid): 22% | Percent of subjects completing the dose escalation to 400 mg bid that show robust improvement in Vanderbilt ADHD scores (at least 40% decrease) (Tier 1, Week 2, 50 mg bid): 11% | Percent of subjects demonstrating robust improvement in Vanderbilt ADHD score (at least 40% decrease) (Tier 1, Week 2, 50 mg bid): 12% | Percent of subjects with improvement in Vanderbilt ADHD score (at least 25% decrease) (Tier 1, Week 2, 50 mg bid): 29% | Percent of subjects completing the dose escalation to 400 mg bid that show improvement in Vanderbilt ADHD scores (at least 25% decrease) (Tier 1, Week 3, 100 mg bid): 44% | Percent of subjects completing the dose escalation to 400 mg bid that show robust improvement in Vanderbilt ADHD scores (at least 40% decrease) (Tier 1, Week 3, 100 mg bid): 44% | Percent of subjects demonstrating robust improvement in Vanderbilt ADHD score (at least 40% decrease) [4]: 44% | Percent of subjects with improvement in Vanderbilt ADHD score (at least 25% decrease) [4]: 50% | Percent of subjects completing the dose escalation to 400 mg bid that show improvement in Vanderbilt ADHD scores (at least 25% decrease) (Tier 1, Week 4, 200 mg bid): 44% | Percent of subjects completing the dose escalation to 400 mg bid that show robust improvement in Vanderbilt ADHD scores (at least 40% decrease) (Tier 1, Week 4, 200 mg bid): 33% | Percent of subjects demonstrating robust improvement in Vanderbilt ADHD score (at least 40% decrease) [5]: 50% | Percent of subjects with improvement in Vanderbilt ADHD score (at least 25% decrease) [5]: 56% | Percent of subjects completing the dose escalation to 400 mg bid that show improvement in Vanderbilt ADHD scores (at least 25% decrease) (Tier 1, Week 5, 400 mg bid): 56% | Percent of subjects completing the dose escalation to 400 mg bid that show robust improvement in Vanderbilt ADHD scores (at least 40% decrease) (Tier 1, Week 5, 400 mg bid): 33% | Percent of subjects demonstrating robust improvement in Vanderbilt ADHD score (at least 40% decrease) [6]: 44% | Percent of subjects with improvement in Vanderbilt ADHD score (at least 25% decrease) [6]: 56% | Percent of subjects completing the dose escalation to 400 mg bid that show improvement in Vanderbilt ADHD scores (at least 25% decrease) (Tier 2, Week 2, 50 mg bid): 0% | Percent of subjects completing the dose escalation to 400 mg bid that show robust improvement in Vanderbilt ADHD scores (at least 40% decrease) (Tier 2, Week 2, 50 mg bid): 0% | Percent of subjects demonstrating robust improvement in Vanderbilt ADHD score (at least 40% decrease) (Tier 2, Week 2, 50 mg bid): 0% | Percent of subjects with improvement in Vanderbilt ADHD score (at least 25% decrease) (Tier 2, Week 2, 50 mg bid): 29% | Percent of subjects completing the dose escalation to 400 mg bid that show improvement in Vanderbilt ADHD scores (at least 25% decrease) (Tier 2, Week 3, 100 mg bid): 20% | Percent of subjects completing the dose escalation to 400 mg bid that show robust improvement in Vanderbilt ADHD scores (at least 40% decrease) (Tier 2, Week 3, 100 mg bid): 0% | Percent of subjects demonstrating robust improvement in Vanderbilt ADHD score (at least 40% decrease) [7]: 0% | Percent of subjects with improvement in Vanderbilt ADHD score (at least 25% decrease) [7]: 43% | Percent of subjects completing the dose escalation to 400 mg bid that show improvement in Vanderbilt ADHD scores (at least 25% decrease) (Tier 2, Week 4, 200 mg bid): 20% | Percent of subjects completing the dose escalation to 400 mg bid that show robust improvement in Vanderbilt ADHD scores (at least 40% decrease) (Tier 2, Week 4, 200 mg bid): 0% | Percent of subjects demonstrating robust improvement in Vanderbilt ADHD score (at least 40% decrease) [8]: 14% | Percent of subjects with improvement in Vanderbilt ADHD score (at least 25% decrease) [8]: 43% | Percent of subjects completing the dose escalation to 400 mg bid that show improvement in Vanderbilt ADHD scores (at least 25% decrease) (Tier 2, Week 5, 400 mg bid): 60% | Percent of subjects completing the dose escalation to 400 mg bid that show robust improvement in Vanderbilt ADHD scores (at least 40% decrease) (Tier 2, Week 5, 400 mg bid): 40% | Percent of subjects demonstrating robust improvement in Vanderbilt ADHD score (at least 40% decrease) [9]: 43% | Percent of subjects with improvement in Vanderbilt ADHD score (at least 25% decrease) [9]: 71% | Percent of subjects completing the dose escalation to 400 mg bid that show improvement in Vanderbilt ADHD scores (at least 25% decrease) (Tier 3, Week 2, 50 mg bid): 33% | Percent of subjects completing the dose escalation to 400 mg bid that show robust improvement in Vanderbilt ADHD scores (at least 40% decrease) (Tier 3, Week 2, 50 mg bid): 33% | Percent of subjects demonstrating robust improvement in Vanderbilt ADHD score (at least 40% decrease) (Tier 3, Week 2, 50 mg bid): 0% | Percent of subjects with improvement in Vanderbilt ADHD score (at least 25% decrease) (Tier 3, Week 2, 50 mg bid): 0% | Percent of subjects completing the dose escalation to 400 mg bid that show improvement in Vanderbilt ADHD scores (at least 25% decrease) (Tier 3, Week 3, 100 mg bid): 33% | Percent of subjects completing the dose escalation to 400 mg bid that show robust improvement in Vanderbilt ADHD scores (at least 40% decrease) (Tier 3, Week 3, 100 mg bid): 0%
